This note sets out measurements from patent US20040171073A1, “Compounds for modulation of cholesterol transport” (Massachusetts Institute of Technology, priority 2002, published 2004).

The test concerns the target T1, murine SR-BI (Mus musculus, UniProt Q61009).
T1 construct: expressed in transfected cells; host or cells: ldlA-7 (LDL receptor deficient Chinese hamster ovary cells)
T1 sequence (Q61009 1-509): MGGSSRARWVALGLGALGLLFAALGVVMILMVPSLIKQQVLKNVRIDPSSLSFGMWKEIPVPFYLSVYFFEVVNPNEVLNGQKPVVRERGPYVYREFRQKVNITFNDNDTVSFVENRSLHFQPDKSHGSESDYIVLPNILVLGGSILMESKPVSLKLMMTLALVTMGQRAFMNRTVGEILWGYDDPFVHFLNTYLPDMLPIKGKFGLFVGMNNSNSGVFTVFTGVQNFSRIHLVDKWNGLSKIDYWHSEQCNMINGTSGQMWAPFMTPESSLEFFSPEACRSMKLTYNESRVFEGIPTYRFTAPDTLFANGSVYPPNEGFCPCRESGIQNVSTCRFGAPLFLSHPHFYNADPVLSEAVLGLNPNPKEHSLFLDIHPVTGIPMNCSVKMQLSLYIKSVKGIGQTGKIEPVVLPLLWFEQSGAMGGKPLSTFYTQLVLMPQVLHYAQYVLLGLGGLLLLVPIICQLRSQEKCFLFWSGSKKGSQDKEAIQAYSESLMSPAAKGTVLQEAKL
In words: Uptake of DiI from DiI-HDL by ldlA[mSR-BI] cells (high throughput screen and concentration dependence). The format is cell-based.

Setting [1] is: DiI uptake from DiI-HDL, compounds at nominal 10 micromolar, ldlA[mSR-BI] cells.

Turning to `Cc1cc(=O)oc2cc(OCc3ccccc3)c(OCc3ccccc3)cc12` [MIT 9952-218], the “ENDOHDL Test 1” value is reported as 0.64 and the “ENDOHDL Test 2” value was found to be 0.33.

Take `COc1ccc(C(=O)Nc2cccc(C(F)(F)F)c2)cc1OC` [MIT 9952-259]: the “ENDOHDL Test 1” value was found to be 0.59 and the “ENDOHDL Test 2” value is 0.55.

As to `COc1ccc(C(=O)NC(Nc2cccc3ccccc23)C(Cl)(Cl)Cl)cc1` (stereo not shown) [MIT 9952-131], the “ENDOHDL Test 1” value is 0.56 and the “ENDOHDL Test 2” value turned out to be 0.52.

As to `O=C(O)c1cc(C(=O)O)nc(C(=O)O)c1` [MIT 9952-60], the “ENDOHDL Test 1” value is reported as 1.13 and the “ENDOHDL Test 2” value is reported as 1.17.

Turning to `O=C(Nc1cc2c(cc1C(=O)c1ccccc1)OCCO2)c1ccc(Br)cc1` [MIT 9952-188], the “ENDOHDL Test 1” value was determined as 0.61 and the “ENDOHDL Test 2” value amounted to 0.58.

Consider `CCOC(=O)c1c(NC(=O)c2ccccc2)sc(NC(=O)c2ccccc2)c1C(=O)OCC` [MIT 9952-215], for which the “ENDOHDL Test 1” value turned out to be 0.57 and the “ENDOHDL Test 2” value is reported as 0.53.

Turning to `CCOc1ccc(NC(=O)/C=C/c2cccc([N+](=O)[O-])c2)cc1` [MIT 9952-255], the “ENDOHDL Test 1” value was found to be 0.61 and the “ENDOHDL Test 2” value worked out at 0.6.

Regarding `O=C(COc1ccc(Cl)cc1Cl)Nc1cccc(C(=O)O)c1` [MIT 9952-127], the “ENDOHDL Test 1” value is 0.62 and the “ENDOHDL Test 2” value turned out to be 0.6.

For `COc1ccc(N/N=C2\C(=O)ON=C2c2ccc(OC)cc2)cc1` [MIT 9952-272], the “ENDOHDL Test 1” value is given as 0.61 and the “ENDOHDL Test 2” value amounted to 0.51.

`CCN(CC)C(=O)N1CCN(c2ccc(Nc3ccnc4cc5ccccc5cc34)cc2)CC1` [MIT 9952-141]: the “ENDOHDL Test 1” value came out at 0.63 and the “ENDOHDL Test 2” value worked out at 0.77.

With `Cc1cc(O)nc2cc3oc4ccccc4c3cc12` [MIT 9952-322], under setting [1], the “ENDOHDL Test 1” value is reported as 0.79 and the “ENDOHDL Test 2” value is given as 0.86.

Take `O=[N+]([O-])c1ccc(N/N=C(/CS(=O)(=O)c2ccccc2)c2ccccc2)c([N+](=O)[O-])c1` [MIT 9952-200]: the “ENDOHDL Test 1” value was 0.73 and the “ENDOHDL Test 2” value is 0.8.

Take `CC(C)C(=O)NC(NC(=S)Nc1cccc(C(=O)Cl)c1)C(Cl)(Cl)Cl` (stereo not shown) [MIT 9952-117]: the “ENDOHDL Test 1” value is on record as 1.26 and the “ENDOHDL Test 2” value is reported as 1.58.

In the case of `Cc1nc(Cl)c(C(c2cc([N+](=O)[O-])ccc2Cl)c2c(Cl)nc(C)nc2Cl)c(Cl)n1` [MIT 9952-22], the “ENDOHDL Test 1” value was determined as 1.27 and the “ENDOHDL Test 2” value is on record as 1.4.

Turning to `COc1cccc(C(=O)Nc2nc3ccc(Cl)cc3s2)c1` [MIT 9952-289], under setting [1], the “ENDOHDL Test 1” value is recorded as 0.6 and the “ENDOHDL Test 2” value came to 0.64.

Take `Cc1ccc(NC(=S)NC(NC(=O)c2ccccc2Cl)C(Cl)(Cl)Cl)cc1` (stereo not shown) [MIT 9952-332]: under setting [1], the “ENDOHDL Test 1” value was determined as 0.69 and the “ENDOHDL Test 2” value is 0.67.

As to `C/C(=N\NC(=O)c1ccc(-c2ccccc2)cc1)c1cccc(N)c1` [MIT 9952-164], the “ENDOHDL Test 1” value came out at 0.6 and the “ENDOHDL Test 2” value turned out to be 0.61.

Take `Cc1cccc(N2C(=O)CC(N3CCOCC3)C2=O)c1` (stereo not shown) [MIT 9952-80]: the “ENDOHDL Test 1” value was 1.34 and the “ENDOHDL Test 2” value came to 1.2.

`CC(F)(F)c1cccc(NC(=O)c2sc(-c3ccccc3)nc2-c2ccc([N+](=O)[O-])cc2)c1` [MIT 9952-166]: the “ENDOHDL Test 1” value worked out at 0.56 and the “ENDOHDL Test 2” value is on record as 0.67.

With `COc1cccc(NC(=O)c2sc(-c3ccccc3)nc2-c2ccc([N+](=O)[O-])cc2)c1` [MIT 9952-118], the “ENDOHDL Test 1” value is reported as 0.51 and the “ENDOHDL Test 2” value is given as 0.63.

As to `COc1ccc(N2C(=O)CC(N3CCCCC3)C2=O)cc1` (stereo not shown) [MIT 9952-16], the “ENDOHDL Test 1” value amounted to 1.25 and the “ENDOHDL Test 2” value is given as 1.26.

Consider `CC1(C)CC(=O)C(=Cc2c(Cl)ccc3ccccc23)C(=O)C1` [MIT 9952-157], for which the “ENDOHDL Test 1” value came out at 1.26 and the “ENDOHDL Test 2” value came out at 1.21.

For `Clc1ccc(N2CCC/C2=N\c2c3c(nc4ccccc24)N(c2ccccc2)CC3)cc1Cl` [MIT 9952-305], under setting [1], the “ENDOHDL Test 1” value is on record as 0.67 and the “ENDOHDL Test 2” value was 0.6.

For the compound `COc1ccc([N+](=O)[O-])cc1NC(=S)NC(NC(=O)c1ccccc1Br)C(Cl)(Cl)Cl` (stereo not shown) [MIT 9952-125], the “ENDOHDL Test 1” value came to 0.63 and the “ENDOHDL Test 2” value came to 0.66.

For the compound `NS(=O)(=O)c1ccc(N=N/C(=N/Nc2ccc(S(N)(=O)=O)cc2)c2ccccc2)cc1` [MIT 9952-204], the “ENDOHDL Test 1” value amounted to 0.55 and the “ENDOHDL Test 2” value was found to be 0.62.

Regarding `C=CCN1C(=O)[C@H]2Cc3c([nH]c4ccccc34)[C@@H](c3ccc4c(c3)OCO4)N2C1=S` [MIT 9952-179], the “ENDOHDL Test 1” value stood at 0.54 and the “ENDOHDL Test 2” value was found to be 0.54.

On to `COc1ccc(OC)c(NC(=O)c2cc([N+](=O)[O-])c(C)c([N+](=O)[O-])c2)c1` [MIT 9952-233], for which the “ENDOHDL Test 1” value came out at 0.59 and the “ENDOHDL Test 2” value was determined as 0.33.

As for `COc1ccc([N+](=O)[O-])cc1NC(=S)NC(NC(=O)C(c1ccccc1)c1ccccc1)C(Cl)(Cl)Cl` (stereo not shown) [MIT 9952-140], the “ENDOHDL Test 1” value is 0.52 and the “ENDOHDL Test 2” value came out at 0.58.

With `O=C(COc1ccc(Cl)cc1)N/N=C/c1ccc(Cl)cc1` [MIT 9952-124], the “ENDOHDL Test 1” value is recorded as 1.33 and the “ENDOHDL Test 2” value is 1.17.

For `O=C(Nc1ccc(Oc2ccc(Cl)c3cccnc23)c(Cl)c1)c1ccc([N+](=O)[O-])cc1` [MIT 9952-172], the “ENDOHDL Test 1” value came out at 0.55 and the “ENDOHDL Test 2” value came out at 0.56.

Regarding `O=C(NNC(=O)c1cccc2ccccc12)c1ccc(NC(=O)c2cccc3ccccc23)cc1` [MIT 9952-329], under setting [1], the “ENDOHDL Test 1” value is 0.57 and the “ENDOHDL Test 2” value was found to be 0.53.

`C/C(=N\NC(N)=S)c1ccc[nH]1` [MIT 9952-309]: under setting [1], the “ENDOHDL Test 1” value is listed as 0.7 and the “ENDOHDL Test 2” value is on record as 0.68.

In the case of `O=C1CC(N2CCOCC2)C(=O)N1c1ccc(Br)cc1` (stereo not shown) [MIT 9952-81], the “ENDOHDL Test 1” value is listed as 1.32 and the “ENDOHDL Test 2” value worked out at 1.17.

In the case of `COc1ccccc1NC(=O)Nc1ccc2ccccc2c1` [MIT 9952-149], the “ENDOHDL Test 1” value turned out to be 0.62 and the “ENDOHDL Test 2” value was 0.6.

As to `C/C(CS(=O)(=O)c1ccccc1)=N/NC(N)=S` [MIT 9952-271], the “ENDOHDL Test 1” value is 0.59 and the “ENDOHDL Test 2” value was 0.54.

For the compound `COc1ccc2c(c1)c(C(C)=O)c(C)n2-c1ccccc1` [MIT 9952-212], the “ENDOHDL Test 1” value is listed as 0.57 and the “ENDOHDL Test 2” value amounted to 0.49.

In the case of `Cc1nn(-c2ccccc2)c(Cl)c1/N=N/c1ccccc1` [MIT 9952-138], the “ENDOHDL Test 1” value is given as 0.54 and the “ENDOHDL Test 2” value worked out at 0.63.

Regarding `Br.NS(=O)(=O)c1ccc(Nc2nc(-c3ccc(Cl)cc3)cs2)cc1` [MIT 9952-293], under setting [1], the “ENDOHDL Test 1” value was determined as 0.69 and the “ENDOHDL Test 2” value is listed as 0.67.

For `CCOC(=O)C1=C(c2ccc(Cl)cc2)C(=O)c2ccccc2C1=O` [MIT 9952-315], under setting [1], the “ENDOHDL Test 1” value came to 0.51 and the “ENDOHDL Test 2” value came to 0.53.

As for `O=[N+]([O-])c1ccc(Cl)c(/C=N/c2ccc(S(=O)(=O)c3ccc(/N=C/c4cc([N+](=O)[O-])ccc4Cl)cc3)cc2)c1` [MIT 9952-139], the “ENDOHDL Test 1” value is reported as 1.22 and the “ENDOHDL Test 2” value is given as 1.39.

Consider `Cc1ccc(NC(=S)NC(NC(=O)c2ccccc2Cl)C(Cl)(Cl)Cl)cc1` (stereo not shown) [MIT 9952-201], for which the “ENDOHDL Test 1” value is recorded as 0.69 and the “ENDOHDL Test 2” value was found to be 0.67.

Take `CC(C)(C)c1ccc(C(=O)Nc2ccccc2C(=O)Cl)cc1` [MIT 9952-47]: the “ENDOHDL Test 1” value amounted to 1.18 and the “ENDOHDL Test 2” value is 1.37.

In the case of `O=C1C(=O)c2ccc(Oc3ccc([N+](=O)[O-])cc3)c3cccc1c23` [MIT 9952-95], the “ENDOHDL Test 1” value was found to be 0.79 and the “ENDOHDL Test 2” value is on record as 0.73.

For `[O-][n+]1onc2c3cc(-c4ccccc4)[nH]c3ccc21` [MIT 9952-304], under setting [1], the “ENDOHDL Test 1” value is recorded as 0.35 and the “ENDOHDL Test 2” value came out at 0.44.

In the case of `O=C(Cl)c1ccccc1NS(=O)(=O)/C=C/c1ccccc1` [MIT 9952-110], the “ENDOHDL Test 1” value stood at 1.17 and the “ENDOHDL Test 2” value was found to be 1.33.

For the compound `O=C(C[n+]1ccc(CCSC2Cc3cccc4cccc2c34)cc1)c1ccc([N+](=O)[O-])cc1` (stereo not shown) [MIT 9952-75], the “ENDOHDL Test 1” value is given as 0.64 and the “ENDOHDL Test 2” value is reported as 0.71.

`CC(=O)C1=C(C)NC(=S)NC1c1ccco1` (stereo not shown) [MIT 9952-264]: the “ENDOHDL Test 1” value was found to be 0.45 and the “ENDOHDL Test 2” value is given as 0.56.

Consider `COc1ccc(C(=O)Nc2ccc(C(C)C)cc2)cc1OC` [MIT 9952-277], for which the “ENDOHDL Test 1” value is 0.66 and the “ENDOHDL Test 2” value is given as 0.65.

On to `O=C(Nc1ccc(-c2nc3cc(NC(=O)c4ccccc4[N+](=O)[O-])ccc3o2)cc1)c1ccccc1[N+](=O)[O-]` [MIT 9952-234], for which the “ENDOHDL Test 1” value was 0.58 and the “ENDOHDL Test 2” value is listed as 0.54.

Consider `COc1ccc(/C(C)=N/NC(=O)C2CC2(c2ccccc2)c2ccccc2)c(OC)c1` (stereo not shown) [MIT 9952-93], for which the “ENDOHDL Test 1” value was 0.66 and the “ENDOHDL Test 2” value stood at 0.71.
